Results on one substance are retold here after US9861647B2 (Prelief Inc., priority 2007, dated 2018).

For data set [1], the system named is ragweed sensitized Beagle dogs. The experiment in a line: Ragweed-induced nasal congestion, nasal cavity volume by acoustic rhinometry. It is filed as in vivo. The text has this: Beagle dogs immunized with ragweed (RW) as puppies develop allergic immune responses. These allergic dogs show elevated total and specific serum IgE and increased numbers of eosinophils in their blood and lungs, as well as an increase in airway resistance and a decrease in dynamic compliance after a challenge with RW by inhalation or local instillation in defined lung lobes. Additionally, these dogs develop increased nasal congestion and inflammation following RW challenge in the nose.
Ragweed sensitized beagle dogs (n=5) with preexisiting nasal and airway allergic responses were utilized in the animal study described in this Example. Dogs served as their own control and initially were treated with vehicle (sterile water) and then rested for 5 weeks prior to receiving the test compound. […] Based on the aerosol testing only 1.6 mg/dog could be delivered by inhalation during a 15 minute exposure (20 mg/ml solution). […]
FIG. 1 summarizes the study design for characterizing the effects of CGP on rhinitis symptoms in ragweed sensitized Beagle dogs. The baseline nasal cavity volume was first measured 3 days (day −3) before each of the vehicle and CGP treatments. […]
Treatment occurred on Days 0 to 5 (only AM on Day 5). […] The pH of the compound (as administered for nasal inhalation) was recorded prior to administration. […]
Acoustic rhinometery was measured on experimental Days 3, 4, and 5. […]

A short description of data set [2]: Tolerability in dogs: daily observations, body weights, blood chemistry. It is filed as in vivo, Beagle dogs. The method, then: Ragweed sensitized beagle dogs (n=5) with preexisiting nasal and airway allergic responses were utilized in the animal study described in this Example. Dogs served as their own control and initially were treated with vehicle (sterile water) and then rested for 5 weeks prior to receiving the test compound. […] Based on the aerosol testing only 1.6 mg/dog could be delivered by inhalation during a 15 minute exposure (20 mg/ml solution). In addition, each dog received twice daily an intranasal instillation of 30 mg (2×375 μl of 20 mg/ml in each nostril) given within 30 minutes after the end of the inhalation exposures.
Vehicle (sterile water) was given twice daily by inhalation (15 minutes) followed by intranasal instillation of water (2×250 μl in each nostril). […] The test-article and the compound solution were prepared in the morning of each treatment day. Vehicle and test-article were administered by inhalation and intranasal instillation twice a day. Dosing of vehicle or test compound was achieved by utilizing a face mask connected to a jet nebulizer for inhalation delivery followed by intranasal instillation in both nostrils using an Accuspray device.
Blood sample was collected by placing a venous (cephalic or saphenous) catheter in the leg prior to anesthesia or by venipuncture (jugular) using a syringe or needle-vacutainer. […]

Turning to calcium glycerophosphate, the “attenuation of nasal congestion at individual time points” value in data set [1] (15 to 90 minutes post ragweed, Bonferroni posttest p<0.05) was “statistically significant at all time points from 15 to 90 minutes post ragweed”. Besides, the “AUC of the change in nasal cavity volume between 0 and 90 min” value in data set [1] (vs vehicle control, n=5, Paired t-test p=0.0092) is “significantly increased”. For the same substance, in data set [2] (dog, in vivo), the “daily observations, adverse health effects” value was “No adverse health effects were found”. Also, the tolerability result in data set [2] (dogs, BID inhalation + intranasal instillation, Days 0 to 5) was “well tolerated”.
